What follows are compounds tested on NCI-H1155 cells (assay: NSCLC cell viability, CellTiter-Glo, NCI-H1155 cells). Details: Homo sapiens, NCI-H1155, 72 h, read-out: Cell viability classification (NCI-H1155).
Type: cell-based
With `O=C1CCC(N2Cc3cc(C(=O)N4Cc5c(F)ccc(OC(F)(F)F)c5C4)ccc3C2=O)C(=O)N1` (centres unmarked) [Example 185, 3-(5-(4-fluoro-7-(trifluoromethoxy)isoindoline-2-carbonyl)-1-oxoisoindolin-2-yl)piperidine-2,6-dione] the IC50 was 100 to 1000 nM.

Same assay, conditions: Homo sapiens; NCI-H1155 cells, CellTiter-Glo, 72 hours of treatment; read-out: Cell viability classification (NCI-H1155)
`Cc1ccc2c(c1F)CN(C(=O)c1ccc3c(c1)CN(C1CCC(=O)NC1=O)C3=O)C2` (centres unmarked) [Example 149, 3-(5-(4-fluoro-5-methylisoindoline-2-carbonyl)-1-oxoisoindolin-2-yl)piperidine-2,6-dione] showed an IC50 of 10 to 100 nM. For `O=C1CCC(c2nc3ccc(C(=O)N4CCc5ccc(Cl)cc5C4)cc3o2)C(=O)N1` (centres unmarked) [Example 180, 3-(6-(7-chloro-1,2,3,4-tetrahydroisoquinoline-2-carbonyl)benzo[d]oxazol-2-yl)piperidine-2,6-dione], the IC50 was > 1000 nM. For `O=C1CCC(c2nc3cc(COC(=O)NC4CC5(CCC(F)(F)CC5)C4)ccc3o2)C(=O)N1` (centres unmarked) [Example 260, (2-(2,6-dioxopiperidin-3-yl)benzo[d]oxazol-5-yl)methyl (7,7-difluorospiro[3.5]nonan-2-yl)carbamate], the IC50 was 100 to 1000 nM. `O=C1CCC(c2nc3ccc(C(=O)N4CCc5cccc(Cl)c5C4)cc3o2)C(=O)N1` (centres unmarked) [Example 179, 3-(6-(8-chloro-1,2,3,4-tetrahydroisoquinoline-2-carbonyl)benzo[d]oxazol-2-yl)piperidine-2,6-dione] gave an IC50 of 100 to 1000 nM. `N#Cc1ccccc1C1=CC2(C1)CN(C(=O)c1ccc3c(c1)CN(C1CCC(=O)NC1=O)C3=O)C2` (centres unmarked) [Example 238, 2-(2-(2-(2,6-dioxopiperidin-3-yl)-1-oxoisoindoline-5-carbonyl)-2-azaspiro[3.3]hept-5-en-6-yl)benzonitrile] gave an IC50 of 100 to 1000 nM. For `C[C@@H]1c2c(F)cccc2CN1C(=O)c1ccc2c(c1)CN(C1CCC(=O)NC1=O)C2=O` (stereo partly drawn) [Example 139, 3-(5-((R)-7-fluoro-1-methylisoindoline-2-carbonyl)-1-oxoisoindolin-2-yl)piperidine-2,6-dione], the IC50 was 10 to 100 nM. With `O=C1CCC(N2Cc3cc(C(=O)N4CC5(CC(c6ccc(F)c(F)c6)C5)C4)ccc3C2=O)C(=O)N1` (centres unmarked) [Example 228, 3-(5-(6-(3,4-difluorophenyl)-2-azaspiro[3.3]heptane-2-carbonyl)-1-oxoisoindolin-2-yl)piperidine-2,6-dione] the IC50 was 10 to 100 nM. With `C[C@H]1CN(C(=O)c2ccc3c(c2)CN(C2CCC(=O)NC2=O)C3=O)c2cc(F)ccc21` (stereo partly drawn) [Example 132, 3-(5-((R)-6-fluoro-3-methylindoline-1-carbonyl)-1-oxoisoindolin-2-yl)piperidine-2,6-dione] the IC50 was < 10 nM. For `O=C1CCC(c2nc3ccc(C(=O)N4CC5(CC=C(F)CC5)C4)cc3o2)C(=O)N1` (centres unmarked) [Example 221, 3-(6-(7-fluoro-2-azaspiro[3.5]non-6-ene-2-carbonyl)benzo[d]oxazol-2-yl)piperidine-2,6-dione], the IC50 was 100 to 1000 nM. For `O=C1CCC(N2Cc3cc(C(=O)N4Cc5cc(F)cc(Cl)c5C4)ccc3C2=O)C(=O)N1` (centres unmarked) [Example 152, 3-(5-(4-chloro-6-fluoroisoindoline-2-carbonyl)-1-oxoisoindolin-2-yl)piperidine-2,6-dione], the IC50 was 10 to 100 nM. With `O=C1CCC(N2Cc3cc(C(=O)N4CC(c5cccc(F)c5)C4)ccc3C2=O)C(=O)N1` (centres unmarked) [Example 193, 3-(5-(3-(3-fluorophenyl)azetidine-1-carbonyl)-1-oxoisoindolin-2-yl)piperidine-2,6-dione] the IC50 was 100 to 1000 nM. Work on `O=C1CCC(N2Cc3cc(C(=O)N4CCC5(CC(c6ccc(F)cc6)C5)C4)ccc3C2=O)C(=O)N1` (centres unmarked) [Example 248, 3-(5-(2-(4-fluorophenyl)-6-azaspiro[3.4]octane-6-carbonyl)-1-oxoisoindolin-2-yl)piperidine-2,6-dione] yielded an IC50 of 10 to 100 nM. With `O=C1CCC(N2Cc3cc(C(=O)N4CC(c5ccc(F)cc5)C4)ccc3C2=O)C(=O)N1` (centres unmarked) [Example 192, 3-(5-(3-(4-fluorophenyl)azetidine-1-carbonyl)-1-oxoisoindolin-2-yl)piperidine-2,6-dione] the IC50 was 100 to 1000 nM. In the case of `O=C1CCC(N2Cc3cc(C(=O)N4CC5(C4)CC(F)(c4ccc(F)cc4)C5)ccc3C2=O)C(=O)N1` (centres unmarked) [Example 168, 3-(5-(6-fluoro-6-(4-fluorophenyl)-2-azaspiro[3.3]heptane-2-carbonyl)-1-oxoisoindolin-2-yl)piperidine-2,6-dione], the IC50 is reported as 100 to 1000 nM. In the case of `O=C1CCC(c2nc3ccc(C(=O)N4Cc5cccc(OC(F)(F)F)c5C4)cc3o2)C(=O)N1` (centres unmarked) [Example 153, 3-(6-(4-(trifluoromethoxy)isoindoline-2-carbonyl)benzo[d]oxazol-2-yl)piperidine-2,6-dione], the IC50 is reported as > 1000 nM. Work on `O=C1CCC(c2nc3ccc(COC(=O)Nc4cc(OC(F)(F)F)ccc4F)cc3o2)C(=O)N1` (centres unmarked) [Example 212, (2-(2,6-dioxopiperidin-3-yl)benzo[d]oxazol-6-yl)methyl (2-fluoro-5-(trifluoromethoxy)phenyl)carbamate] yielded an IC50 of 100 to 1000 nM. In the case of `COc1cccc2c1CN(C(=O)c1ccc3nc(C4CCC(=O)NC4=O)oc3c1)C2` (centres unmarked) [Example 162, 3-(6-(4-methoxyisoindoline-2-carbonyl)benzo[d]oxazol-2-yl)piperidine-2,6-dione], the IC50 is reported as > 1000 nM. `C[C@H]1c2cccc(F)c2CN1C(=O)c1ccc2c(c1)CN(C1CCC(=O)NC1=O)C2=O` (stereo partly drawn) [Example 141, 3-(5-((S)-4-fluoro-1-methylisoindoline-2-carbonyl)-1-oxoisoindolin-2-yl)piperidine-2,6-dione] was tested, and the IC50 was 100 to 1000 nM. For `O=C1CCC(N2Cc3cc(C(=O)N4CC5(CCOCC5)C4)ccc3C2=O)C(=O)N1` (centres unmarked) [Example 186, 3-(1-oxo-5-(7-oxa-2-azaspiro[3.5]nonane-2-carbonyl)isoindolin-2-yl)piperidine-2,6-dione], the IC50 was > 1000 nM. `O=C1CCC(N2Cc3cc(C(=O)N4CC5(C=C(c6ccc(F)c(F)c6)C5)C4)ccc3C2=O)C(=O)N1` (centres unmarked) [Example 234, 3-(5-(6-(3,4-difluorophenyl)-2-azaspiro[3.3]hept-5-ene-2-carbonyl)-1-oxoisoindolin-2-yl)piperidine-2,6-dione] was tested, and the IC50 was 10 to 100 nM. For `O=C1CCC(N2Cc3cc(C(=O)N4CC5(CCC(F)(F)C5)C4)ccc3C2=O)C(=O)N1` (centres unmarked) [Example 163, 3-(5-(6,6-difluoro-2-azaspiro[3.4]octane-2-carbonyl)-1-oxoisoindolin-2-yl)piperidine-2,6-dione], the IC50 was 100 to 1000 nM. `O=C1CCC(N2Cc3cc(C(=O)NC4CC5(C=C(c6ccc(F)cc6F)C5)C4)ccc3C2=O)C(=O)N1` (centres unmarked) [Example 214, N-(6-(2,4-difluorophenyl)spiro[3.3]hept-5-en-2-yl)-2-(2,6-dioxopiperidin-3-yl)-1-oxoisoindoline-5-carboxamide] showed an IC50 of 100 to 1000 nM. Work on `O=C1CCC(N2Cc3cc(C(=O)N4CC5(CCC(F)(F)CC5)C4)ccc3C2=O)C(=O)N1` (centres unmarked) [Example 157, 3-(5-(7,7-difluoro-2-azaspiro[3.5]nonane-2-carbonyl)-1-oxoisoindolin-2-yl)piperidine-2,6-dione] yielded an IC50 of 100 to 1000 nM. `O=C1CCC(N2Cc3cc(C(=O)NC4CC5(C=C(c6ccc(OC(F)(F)F)cc6)C5)C4)ccc3C2=O)C(=O)N1` (centres unmarked) [Example 213, 2-(2,6-dioxopiperidin-3-yl)-1-oxo-N-(6-(4-(trifluoromethoxy)phenyl)spiro[3.3]hept-5-en-2-yl)isoindoline-5-carboxamide] gave an IC50 of 100 to 1000 nM. In the case of `O=C1CCC(c2nc3ccc(C(=O)N4CC5(CCC(C(F)(F)F)CC5)C4)cc3o2)C(=O)N1` (centres unmarked) [Example 259, 3-(6-(7-(trifluoromethyl)-2-azaspiro[3.5]nonane-2-carbonyl)benzo[d]oxazol-2-yl)piperidine-2,6-dione], the IC50 is reported as > 1000 nM. With `O=C1CCC(N2Cc3cc(C(=O)N4CC5(CC(c6ccc(C(F)(F)F)cc6F)C5)C4)ccc3C2=O)C(=O)N1` (centres unmarked) [Example 246, 3-(5-(6-(2-fluoro-4-(trifluoromethyl)phenyl)-2-azaspiro[3.3]heptane-2-carbonyl)-1-oxoisoindolin-2-yl)piperidine-2,6-dione] the IC50 was 10 to 100 nM. For `Cc1cc(F)c2c(c1)CN(C(=O)c1ccc3c(c1)CN(C1CCC(=O)NC1=O)C3=O)C2` (centres unmarked) [Example 155, 3-(5-(4-fluoro-6-methylisoindoline-2-carbonyl)-1-oxoisoindolin-2-yl)piperidine-2,6-dione], the IC50 was < 10 nM. In the case of `COC1(c2ccc(F)cc2)CC2(CN(C(=O)c3ccc4c(c3)CN(C3CCC(=O)NC3=O)C4=O)C2)C1` (centres unmarked) [Example 244, 3-(5-(6-(4-fluorophenyl)-6-methoxy-2-azaspiro[3.3]heptane-2-carbonyl)-1-oxoisoindolin-2-yl)piperidine-2,6-dione], the IC50 is reported as 100 to 1000 nM. `N#Cc1cccc2c1CN(C(=O)c1ccc3nc(C4CCC(=O)NC4=O)oc3c1)C2` (centres unmarked) [Example 173, 2-(2-(2,6-dioxopiperidin-3-yl)benzo[d]oxazole-6-carbonyl)isoindoline-4-carbonitrile] gave an IC50 of 100 to 1000 nM. `N#Cc1ccc(C2=CC3(C2)CC(NC(=O)c2ccc4c(c2)CN(C2CCC(=O)NC2=O)C4=O)C3)cc1` (centres unmarked) [Example 216, N-(6-(4-cyanophenyl)spiro[3.3]hept-5-en-2-yl)-2-(2,6-dioxopiperidin-3-yl)-1-oxoisoindoline-5-carboxamide] gave an IC50 of 100 to 1000 nM. `O=C1CCC(N2Cc3cc(C(=O)N4Cc5cccc(OC(F)(F)F)c5C4)ccc3C2=O)C(=O)N1` (centres unmarked) [Example 151, 3-(1-oxo-5-(4-(trifluoromethoxy)isoindoline-2-carbonyl)isoindolin-2-yl)piperidine-2,6-dione] gave an IC50 of 10 to 100 nM. `C[C@H]1c2c(F)cccc2CN1C(=O)c1ccc2nc(C3CCC(=O)NC3=O)oc2c1` (stereo partly drawn) [Example 160, 3-(6-((S)-7-fluoro-1-methylisoindoline-2-carbonyl)benzo[d]oxazol-2-yl)piperidine-2,6-dione] showed an IC50 of 100 to 1000 nM. `O=C1CCC(N2Cc3cc(C(=O)N4CC(c5ccccc5F)C4)ccc3C2=O)C(=O)N1` (centres unmarked) [Example 194, 3-(5-(3-(2-fluorophenyl)azetidine-1-carbonyl)-1-oxoisoindolin-2-yl)piperidine-2,6-dione] showed an IC50 of 100 to 1000 nM. `O=C1CCC(c2nc3cc(COC(=O)Nc4cc(Cl)ccc4F)ccc3o2)C(=O)N1` (centres unmarked) [Example 224, (2-(2,6-dioxopiperidin-3-yl)benzo[d]oxazol-5-yl)methyl (5-chloro-2-fluorophenyl)carbamate] gave an IC50 of 100 to 1000 nM.
